Measurements published in patent US8134015B2, “Compound inhibiting in vivo phosphorous transport and medicine containing the same” (Kyowa Hakko Kirin Co., Ltd., priority 2003, dated 2012).

target: T1, rat NaPi-2b (Rattus norvegicus, UniProt Q9JJ09); assay: Sodium-dependent phosphate uptake of Xenopus oocytes which expressed NaPi-2b (32P); format: cell-based; settings: Xenopus oocytes expressing rat NaPi-2b, 32P radioactive phosphorus; read-out: IC50 (phosphate uptake inhibitory activity)
T1 construct: expressed in transfected cells; host or cells: Xenopus oocytes injected with cRNA
T1 sequence (Q9JJ09 1-695): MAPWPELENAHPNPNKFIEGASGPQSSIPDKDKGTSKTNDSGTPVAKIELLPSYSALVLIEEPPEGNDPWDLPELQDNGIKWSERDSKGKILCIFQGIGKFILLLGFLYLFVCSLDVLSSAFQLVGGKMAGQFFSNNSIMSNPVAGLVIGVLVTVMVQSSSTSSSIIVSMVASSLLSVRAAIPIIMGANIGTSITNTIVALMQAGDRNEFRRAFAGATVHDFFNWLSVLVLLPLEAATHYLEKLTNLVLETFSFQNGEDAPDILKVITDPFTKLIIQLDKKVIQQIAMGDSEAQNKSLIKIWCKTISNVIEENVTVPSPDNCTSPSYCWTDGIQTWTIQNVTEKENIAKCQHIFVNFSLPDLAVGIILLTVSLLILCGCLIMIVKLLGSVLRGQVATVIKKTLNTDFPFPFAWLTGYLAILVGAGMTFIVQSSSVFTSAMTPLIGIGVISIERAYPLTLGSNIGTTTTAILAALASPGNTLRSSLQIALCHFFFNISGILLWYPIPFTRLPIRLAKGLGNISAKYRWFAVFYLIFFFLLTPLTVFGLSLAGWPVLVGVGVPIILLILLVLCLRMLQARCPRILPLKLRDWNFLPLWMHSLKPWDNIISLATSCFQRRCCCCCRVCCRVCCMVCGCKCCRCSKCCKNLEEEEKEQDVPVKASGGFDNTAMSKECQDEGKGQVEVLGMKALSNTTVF
Outline: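 Percent inhibition at 300 μM and 100 μM comes from the same inhibition curve of 32P uptake. Assay used oocytes expressing rat NaPi-2b after 2 days of culture.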

Point of comparison: `CCN(CC)CCNCc1ccc(C(=O)Nc2ccc(Br)cc2C(=O)N/N=C/c2ccc(Cl)c(C(F)(F)F)c2)cc1` [Compound 297, N-[4-Bromo-2-(4-chloro-3-trifluoromethyl-benzylidene-hydrazinocarbonyl)-phenyl]-4-[(2-diethylamino-ethylamino)-methyl]-benzamide], IC50 960 nM. Against it:
- Cc1ccc(/C=N/NC(=O)c2cc(Br)ccc2NC(=O)c2ccc(CSCCCO)cc2)cc1C [Compound 273, N-[4-Bromo-2-(3,4-dimethyl-benzylidene-hydrazinocarbonyl)-phenyl]-4-(3-hydroxy-propylsulfanylmethyl)-benzamide] — 6.4-fold lower, 150 nM
- Cc1ccc(/C=N/NC(=O)c2cc(Br)ccc2NC(=O)c2ccc(CSCCCO)cc2)cc1 [Compound 274, N-[4-Bromo-2-(4-methyl-benzylidene-hydrazinocarbonyl)-phenyl]-4-(3-hydroxy-propylsulfanylmethyl)-benzamide] — within 1.5-fold, 1040 nM
- Cc1cccc(/C=N/NC(=O)c2cc(Br)ccc2NC(=O)c2ccc(CSCCCO)cc2)c1 [Compound 275, N-[4-Bromo-2-(3-methyl-benzylidene-hydrazinocarbonyl)-phenyl]-4-(3-hydroxy-propylsulfanylmethyl)-benzamide] — 1.8-fold higher, 1730 nM
- O=C(Nc1ccc(Br)cc1C(=O)N/N=C/c1ccc(F)cc1)c1ccc(CSCCCO)cc1 [Compound 276, N-[4-Bromo-2-(4-fluoro-benzylidene-hydrazinocarbonyl)-phenyl]-4-(3-hydroxy-propylsulfanylmethyl)-benzamide] — 6.5-fold higher, 6200 nM
- O=C(Nc1ccc(Br)cc1C(=O)N/N=C/c1cccc(F)c1)c1ccc(CSCCCO)cc1 [Compound 277, N-[4-Bromo-2-(3-fluoro-benzylidene-hydrazinocarbonyl)-phenyl]-4-(3-hydroxy-propylsulfanylmethyl)-benzamide] — 1.7-fold higher, 1600 nM
- O=C(Nc1ccc(Br)cc1C(=O)N/N=C/c1ccc(Cl)c(C(F)(F)F)c1)c1ccc(CSCCCO)cc1 [Compound 278, N-[4-Bromo-2-(4-chloro-3-trifluoromethyl-benzylidene-hydrazinocarbonyl)-phenyl]-4-(3-hydroxy-propylsulfanylmethyl)-benzamide] — 6-fold lower, 160 nM
- Cc1ccc(/C=N/NC(=O)c2cc(Br)ccc2NC(=O)c2cccc(CNCCN3CCOCC3)c2)cc1C [Compound 279, N-[4-Bromo-2-(3,4-dimethyl-benzylidene-hydrazinocarbonyl)-phenyl]-3-[(2-morpholin-4-yl-ethylamino)-methyl]-benzamide] — 2.4-fold higher, 2310 nM
- CCN(CC)CCN(C)Cc1ccc(C(=O)Nc2ccc(Br)cc2C(=O)N/N=C/c2ccc(C)c(C)c2)cc1 [Compound 280, N-[4-Bromo-2-(3,4-dimethyl-benzylidene-hydrazinocarbonyl)-phenyl]-4-{[(2-diethylamino-ethyl)-methyl-amino]-methyl}-benzamide] — within 1.5-fold, 780 nM
- Cc1ccc(/C=N/NC(=O)c2cc(Br)ccc2NC(=O)c2ccc(CNCCN3CCOCC3)cc2)cc1C [Compound 281, N-[4-Bromo-2-(3,4-dimethyl-benzylidene-hydrazinocarbonyl)-phenyl]-4-[(2-morpholin-4-yl-ethylamino)-methyl]-benzamide] — 4.8-fold higher, 4600 nM
- Cc1ccc(/C=N/NC(=O)c2cc(Br)ccc2NC(=O)c2ccc(CNCCN3CCOCC3)cc2)cc1 [Compound 282, N-[4-Bromo-2-(4-methyl-benzylidene-hydrazinocarbonyl)-phenyl]-4-[(2-morpholin-4-yl-ethylamino)-methyl]-benzamide] — 7-fold higher, 6710 nM
- Cc1cccc(/C=N/NC(=O)c2cc(Br)ccc2NC(=O)c2ccc(CNCCN3CCOCC3)cc2)c1 [Compound 283, N-[4-Bromo-2-(3-methyl-benzylidene-hydrazinocarbonyl)-phenyl]-4-[(2-morpholin-4-yl-ethylamino)-methyl]-benzamide] — 23-fold higher, 22400 nM
- O=C(Nc1ccc(Br)cc1C(=O)N/N=C/c1ccc(F)cc1)c1ccc(CNCCN2CCOCC2)cc1 [Compound 284, N-[4-Bromo-2-(4-fluoro-benzylidene-hydrazinocarbonyl)-phenyl]-4-[(2-morpholin-4-yl-ethylamino)-methyl]-benzamide] — 28-fold higher, 26900 nM
- CCN(CC)CCN(C)Cc1ccc(C(=O)Nc2ccc(Br)cc2C(=O)N/N=C/c2cccc(C)c2)cc1 [Compound 286, N-[4-Bromo-2-(3-methyl-benzylidene-hydrazinocarbonyl)-phenyl]-4-{[(2-diethylamino-ethyl)-methyl-amino]-methyl}-benzamide] — 1.7-fold lower, 570 nM
- CCN(CC)CCN(C)Cc1ccc(C(=O)Nc2ccc(Br)cc2C(=O)NN=Cc2ccc(F)cc2)cc1 [Compound 287, N-[4-Bromo-2-(4-fluoro-benzylidene-hydrazinocarbonyl)-phenyl]-4-{[(2-diethylamino-ethyl)-methyl-amino]-methyl}-benzamide] — 8.7-fold lower, 110 nM
- CCN(CC)CCN(C)Cc1ccc(C(=O)Nc2ccc(Br)cc2C(=O)N/N=C/c2cccc(F)c2)cc1 [Compound 288, N-[4-Bromo-2-(3-fluoro-benzylidene-hydrazinocarbonyl)-phenyl]-4-{[(2-diethylamino-ethyl)-methyl-amino]-methyl}-benzamide] — within 1.5-fold, 1310 nM
- CCN(CC)CCN(C)Cc1ccc(C(=O)Nc2ccc(Br)cc2C(=O)N/N=C/c2ccc(Cl)c(C(F)(F)F)c2)cc1 [Compound 289, N-[4-Bromo-2-(4-chloro-3-trifluoromethyl-benzylidene-hydrazinocarbonyl)-phenyl]-4-{[(2-diethylamino-ethyl)-methyl-amino]-methyl}-benzamide] — 3-fold higher, 2890 nM
- CCN(CC)CCN(C)Cc1ccc(C(=O)Nc2ccc(Br)cc2C(=O)NN=Cc2ccc(OC)cc2)cc1 [Compound 290, N-[4-Bromo-2-(4-methoxy-benzylidene-hydrazinocarbonyl)-phenyl]-4-{[(2-diethylamino-ethyl)-methyl-amino]-methyl}-benzamide] — 3.4-fold higher, 3250 nM
- CCN(CC)CCN(C)Cc1ccc(C(=O)Nc2ccc(Br)cc2C(=O)N/N=C/c2cccc(OC)c2)cc1 [Compound 291, N-[4-Bromo-2-(3-methoxy-benzylidene-hydrazinocarbonyl)-phenyl]-4-{[(2-diethylamino-ethyl)-methyl-amino]-methyl}-benzamide] — within 1.5-fold, 1160 nM
- CCN(CC)CCNCc1ccc(C(=O)Nc2ccc(Br)cc2C(=O)N/N=C/c2ccc(C)c(C)c2)cc1 [Compound 292, N-[4-Bromo-2-(3,4-dimethyl-benzylidene-hydrazinocarbonyl)-phenyl]-4-[(2-diethylamino-ethylamino)-methyl]-benzamide] — 3.6-fold higher, 3500 nM
- CCN(CC)CCNCc1ccc(C(=O)Nc2ccc(Br)cc2C(=O)N/N=C/c2ccc(C)cc2)cc1 [Compound 293, N-[4-Bromo-2-(4-methyl-benzylidene-hydrazinocarbonyl)-phenyl]-4-[(2-diethylamino-ethylamino)-methyl]-benzamide] — 5.8-fold higher, 5590 nM
- CCN(CC)CCNCc1ccc(C(=O)Nc2ccc(Br)cc2C(=O)N/N=C/c2cccc(C)c2)cc1 [Compound 294, N-[4-Bromo-2-(3-methyl-benzylidene-hydrazinocarbonyl)-phenyl]-4-[(2-diethylamino-ethylamino)-methyl]-benzamide] — 8.1-fold higher, 7800 nM
- CCN(CC)CCNCc1ccc(C(=O)Nc2ccc(Br)cc2C(=O)N/N=C/c2ccc(F)cc2)cc1 [Compound 295, N-[4-Bromo-2-(4-fluoro-benzylidene-hydrazinocarbonyl)-phenyl]-4-[(2-diethylamino-ethylamino)-methyl]-benzamide] — 7.9-fold higher, 7580 nM
- CCN(CC)CCNCc1ccc(C(=O)Nc2ccc(Br)cc2C(=O)N/N=C/c2cccc(F)c2)cc1 [Compound 296, N-[4-Bromo-2-(3-fluoro-benzylidene-hydrazinocarbonyl)-phenyl]-4-[(2-diethylamino-ethylamino)-methyl]-benzamide] — 1.5-fold higher, 1450 nM
- CCN(CC)CCNCc1ccc(C(=O)Nc2ccc(Br)cc2C(=O)N/N=C/c2ccc(OC)cc2)cc1 [Compound 298, N-[4-Bromo-2-(4-methoxy-benzylidene-hydrazinocarbonyl)-phenyl]-4-[(2-diethylamino-ethylamino)-methyl]-benzamide] — 9.6-fold higher, 9220 nM
- CCN(CC)CCNCc1ccc(C(=O)Nc2ccc(Br)cc2C(=O)N/N=C/c2cccc(OC)c2)cc1 [Compound 299, N-[4-Bromo-2-(3-methoxy-benzylidene-hydrazinocarbonyl)-phenyl]-4-[(2-diethylamino-ethylamino)-methyl]-benzamide] — 4.1-fold higher, 3910 nM
- Cc1ccc(/C=N/NC(=O)c2cc(Br)ccc2NC(=O)c2ccc(CNCCCN(CCO)CCO)cc2)cc1C [Compound 300, 4-({3-[Bis-(2-hydroxy-ethyl)-amino]-propylamino}-methyl)-N-[4-bromo-2-(3,4-dimethyl-benzylidene-hydrazinocarbonyl)-phenyl]-benzamide] — 2-fold higher, 1920 nM
- O=C(Nc1ccc(Br)cc1C(=O)N/N=C/c1cccc(F)c1)c1ccc(CNCCCN(CCO)CCO)cc1 [Compound 301, 4-({3-[Bis-(2-hydroxy-ethyl)-amino]-propylamino}-methyl)-N-[4-bromo-2-(3-fluoro-benzylidene-hydrazinocarbonyl)-phenyl]-benzamide] — 16-fold higher, 15200 nM
